According to publication PMC4604124, “In Vitro Characterization of the Pharmacological Properties of the Anti-Cancer Chelator, Bp4eT, and Its Phase I Metabolites” (PLoS ONE, 2015):
Where “and” joins values, the source holds several entries; their conditions need not be identical. Equal entries are not always repeated.

Experiments:
[1] = system: caspase 9; assay: Caspase activity, luminescent kit, caspase 9; format: cell-based, human; settings: for Caspase 9 activity, % of the control: 100 nM, MCF-7, corrected for viability; for kaspáza 9, průměry (means of raw signal): mean of 4 experiments; for kaspáza 9, raw signal / kaspáza 9, signal / viabilita: individual experiments by date
Protocol: To assess the effect of the compounds on caspase activity, MCF-7 cells were incubated with 100 nM Bp4eT or its metabolites for 3, 24 or 72 h/37°C in 96-well plates, as described above. The cells were then lysed by adding 100 μL of cold lysis buffer (100 mM HEPES, 10 mM CHAPS, 10 mM D-L-dithiothreitol, pH 7.4) to 100 μL of medium in each well. Lysates were immediately frozen at -80°C. Thawed lysates were used to assess caspase activity using luminescent kits for caspases 3/7, 8 and 9 (Promega, Madison, WI, USA). The luminescence was measured using the Tecan Infinite 200M plate reader. Caspase activity in the experimental groups was corrected according to the cellular viability of each group and expressed as a percentage of activity of the untreated control (100%).

[2] = system: MCF-7 cells; assay: Cellular 59Fe uptake from 59Fe2-transferrin; format: cell-based, human; parameters: key to Uptake 59Fe, Ave / Uptake 59Fe: % of internalized 59Fe in untreated control cells
Text: Human transferrin (Sigma) was labeled with ^56Fe or ^59Fe (PerkinElmer, Massachusetts, USA) to produce ^56Fe2-transferrin or ^59Fe2-transferrin (^59Fe2-Tf), respectively, with a final specific activity of 500 pCi/pmol Fe, as previously described. Unbound ^59Fe was removed by exhaustive vacuum dialysis against a large excess of 0.15 M NaCl buffered to pH 7.4 with 1.4% NaHCO3 by standard methods.
The ability of the chelators to prevent cellular ^59Fe uptake from ^59Fe2-transferrin was examined using standard techniques. In brief, confluent MCF-7 cells in 6-well plates were incubated with 0.75 μM ^59Fe2-Tf for 3 h/37°C in the presence of Bp4eT or its metabolites (25 μM). The cells were then washed four times with ice-cold PBS and the level of internalized ^59Fe was determined by incubating the cell monolayer for 30 min/4°C with the general protease, Pronase (1 mg/mL; Sigma-Aldrich). The cells were then removed from the monolayer with a plastic spatula on ice and centrifuged for 1 min/12,000 x g/4°C. The supernatant represents membrane-bound, Pronase-sensitive ^59Fe that was released by the protease, while the Pronase-insensitive fraction represents internalized ^59Fe. The amount of internalized ^59Fe was expressed as a percentage of ^59Fe internalized by control (untreated) cells.

[3] = Ascorbate oxidation assay (redox activity of iron complexes); format: biochemical;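 for %Fe 30min (ascorbate oxidation, Fe 100%), průměr: IBE 3 means excess free chelator over iron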;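 for %Fe 30min (ascorbate oxidation, Fe 100%): IBE 3 means excess free chelator over iron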;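 for %Fe 30min (ascorbate oxidation, Fe = 100%), průměr (mean): IBE 1 means iron-binding equivalents giving fully coordinated iron-chelator complexes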;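 for %Fe 30min (ascorbate oxidation, Fe = 100%), single replicates: IBE 1 means iron-binding equivalents giving fully coordinated iron-chelator complexes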;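 for %Fe 30min: ascorbate oxidation as % of the Fe control (Fe 100%): IBE 0.1 means iron-binding equivalents with iron in excess over chelator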;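 for Change of absorbance, odečet 0 (time 0 subtracted), čas 10, průměr: IBE 3 means excess free chelator over 10 µM FeCl3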;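 for Change of absorbance, odečet 0 (time 0 subtracted), čas 10: IBE 3 means excess free chelator over 10 µM FeCl3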;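 for Change of absorbance, odečet 0 (time 0 subtracted), čas 20, průměr: 100 µM ascorbate with 10 µM FeCl3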;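 for Change of absorbance, odečet 0 (time 0 subtracted), čas 20: 100 µM ascorbate with 10 µM FeCl3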;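 for Change of absorbance, odečet 0 (time 0 subtracted), čas 30, průměr: 100 µM ascorbate with 10 µM FeCl3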;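 for Change of absorbance, odečet 0 (time 0 subtracted), čas 30: 100 µM ascorbate with 10 µM FeCl3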;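 for odečet 0 (reading minus time 0 reading) at čas 20, single replicates: IBE 1 means fully coordinated iron chelator complexes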;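 for odečet 0 (reading minus time 0 reading) at čas 30, průměr (mean): IBE 1 means fully coordinated iron chelator complexes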;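 for odečet 0 (reading minus time 0 reading) at čas 30, single replicates: IBE 1 means fully coordinated iron chelator complexes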;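 for raw reading at čas 20 (time 20), průměr (mean): IBE 1 means fully coordinated iron chelator complexes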;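 for raw reading at čas 20 (time 20), single replicates: IBE 1 means fully coordinated iron chelator complexes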;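 for raw reading at čas 30 (time 30), průměr (mean): IBE 1 means fully coordinated iron chelator complexes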;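 for raw reading at čas 30 (time 30), single replicates: IBE 1 means fully coordinated iron chelator complexes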
[4] = sheet IBE 1, time 10, replicates
[5] = sheet IBE 1, time 20, replicates
[6] = sheet IBE 1, time 30, replicates

CCNC(=S)NN=C(c1ccccc1)c1ccccn1 [Bp4eT, 2-benzoylpyridine 4-ethyl-3-thiosemicarbazone]
Caspase 9 activity, % of the control ([1]; 24 h): 125%
Caspase 9 activity, % of the control ([1]; 72 h): 249%
kaspáza 9, % kontroly ([1]; 3 hodiny (3 h), % of control): 104.85%
kaspáza 9, průměry (means of raw signal) ([1]; 3 hodiny (3 h)): 3805.38
kaspáza 9, raw signal ([1]; 3 hodiny): 6578.5 and 2900.5 and 3521 and 2221.5
kaspáza 9, raw signal, průměry ([1]; 3 hodiny, mean): 3805.38
kaspáza 9, % kontroly ([1]; 3 hodiny, mean, normalised to viability): 111.23 % kontroly
kaspáza 9, signal / viabilita ([1]; 3 hodiny, normalised to viability): 68.2861 and 30.1078 and 36.5487 and 23.0596
kaspáza 9, signal / viabilita, průměry ([1]; 3 hodiny, normalised to viability, mean): 39.5005
kaspáza 9, % kontroly ([1]; 24 hodin (24 h), % of control): 66.84%
kaspáza 9, průměry (means of raw signal) ([1]; 24 hodin (24 h)): 2704
kaspáza 9, raw signal ([1]; 24 hodin): 3466.5 and 1743.5 and 3244.5 and 2361.5
kaspáza 9, raw signal, průměry ([1]; 24 hodin, mean): 2704
kaspáza 9, % kontroly ([1]; 24 hodin, mean, normalised to viability): 124.96 % kontroly
kaspáza 9, signal / viabilita ([1]; 24 hodin, normalised to viability): 65.5914 and 32.9897 and 61.3908 and 44.6831
kaspáza 9, signal / viabilita, průměry ([1]; 24 hodin, normalised to viability, mean): 51.1638
kaspáza 9, % kontroly ([1]; 72 hodin (72 h), % of control): 66.22%
kaspáza 9, průměry (means of raw signal) ([1]; 72 hodin (72 h)): 14621.1
kaspáza 9, raw signal ([1]; 72 hodin): 22930.5 and 14080 and 11064.5 and 10409.5
kaspáza 9, raw signal, průměry ([1]; 72 hodin, mean): 14621.1
kaspáza 9, % kontroly ([1]; 72 hodin, mean, normalised to viability): 249.26 % kontroly
kaspáza 9, signal / viabilita ([1]; 72 hodin, normalised to viability): 846.456 and 519.749 and 408.435 and 384.256
kaspáza 9, signal / viabilita, průměry ([1]; 72 hodin, normalised to viability, mean): 539.724
Internalized 59Fe uptake, % of the control ([2]; 25 μM, 3 h/37°C, MCF-7, 0.75 μM 59Fe2-Tf): 11.5%
Uptake 59Fe, Ave ([2]; average of all replicates, Control Ave = 100): 11.5476
Uptake 59Fe ([2]; single replicate (three per date), Control Ave = 100): 9.2904 and 11.2475 and 13.4264 and 10.306 and 10.873 and 13.9435 and 11.6905 and 10.1589 and 12.9919
%Fe 30min: ascorbate oxidation as % of the Fe control (Fe 100%) ([3]; IBE 0.1, 30 min, mean (průměr)): 114.3%
Change of absorbance after subtraction of time 0 (odečet 0) ([3]; IBE 0.1, time 10, mean (průměr)): -0.04348
Change of absorbance after subtraction of time 0 (odečet 0) ([3]; IBE 0.1, time 20, mean (průměr)): -0.0765
Change of absorbance after subtraction of time 0 (odečet 0) ([3]; IBE 0.1, time 30, mean (průměr)): -0.108
Absorbance (ascorbate, λ = 265 nm) ([3]; IBE 0.1, čas 0 (time 0), mean (průměr)): 0.839
Absorbance (ascorbate, λ = 265 nm) ([3]; IBE 0.1, čas 10 (time 10), mean (průměr)): 0.7956
Absorbance (ascorbate, λ = 265 nm) ([3]; IBE 0.1, čas 20 (time 20), mean (průměr)): 0.7625
Absorbance (ascorbate, λ = 265 nm) ([3]; IBE 0.1, čas 30 (time 30), mean (průměr)): 0.731
Ascorbate oxidation, % of the control ([3]; IBE 1): significant (p < 0.001) increase
Ascorbate oxidation, % of the control ([3]; IBE 3): significant (p < 0.001) increase
%Fe 30min (ascorbate oxidation, Fe = 100%), průměr (mean) ([3]; sheet IBE 1, 30min, Fe 100%, mean): 274.4%
%Fe 30min (ascorbate oxidation, Fe = 100%), single replicates ([3]; sheet IBE 1, 30min, Fe 100%, replicates): 326.6% and 305.9% and 307.7% and 264.1% and 243.3% and 218.6% and 291.9% and 257% and 254.6%
raw reading at čas 0 (time 0), průměr (mean) ([3]; sheet IBE 1, time 0, mean of 9 readings): 0.8081
raw reading at čas 0 (time 0), single replicates ([3]; sheet IBE 1, time 0, replicates of 2014-03-24 (two runs) and 2014-03-25): 0.8198 and 0.8003 and 0.8337 and 0.8268 and 0.8308 and 0.7872 and 0.7839 and 0.7637 and 0.8272
odečet 0 (reading minus time 0 reading) at čas 10, průměr (mean) ([3]; sheet IBE 1, time 10, mean): -0.1075
raw reading at čas 10 (time 10), průměr (mean) ([3]; sheet IBE 1, time 10, mean of 9 readings): 0.7006
odečet 0 (reading minus time 0 reading) at čas 10, single replicates [3, 4]: -0.1527 and -0.1456 and -0.1532 and -0.1025 and -0.07863 and -0.05463 and -0.1235 and -0.07821 and -0.07861
raw reading at čas 10 (time 10), single replicates [3, 4]: 0.681 and 0.6812 and 0.6776 and 0.6847 and 0.7053 and 0.7091 and 0.7037 and 0.7416 and 0.7217
odečet 0 (reading minus time 0 reading) at čas 20, průměr (mean) ([3]; sheet IBE 1, time 20, mean): -0.1811
raw reading at čas 20 (time 20), průměr (mean) ([3]; sheet IBE 1, time 20, mean of 9 readings): 0.627
odečet 0 (reading minus time 0 reading) at čas 20, single replicates [3, 5]: -0.2337 and -0.2156 and -0.2203 and -0.1671 and -0.1458 and -0.1256 and -0.1987 and -0.1601 and -0.163
raw reading at čas 20 (time 20), single replicates [3, 5]: 0.6 and 0.6112 and 0.6105 and 0.6201 and 0.6381 (2×) and 0.6284 and 0.6597 and 0.6373
odečet 0 (reading minus time 0 reading) at čas 30, průměr (mean) ([3]; sheet IBE 1, time 30, mean): -0.2442
raw reading at čas 30 (time 30), průměr (mean) ([3]; sheet IBE 1, time 30, mean of 9 readings): 0.5639
odečet 0 (reading minus time 0 reading) at čas 30, single replicates [3, 6]: -0.2822 and -0.2643 and -0.2658 and -0.2282 and -0.2102 and -0.1888 and -0.2754 and -0.2425 and -0.2402
raw reading at čas 30 (time 30), single replicates [3, 6]: 0.5515 and 0.5624 and 0.5649 and 0.5591 and 0.5737 and 0.5749 and 0.5518 and 0.5772 and 0.56
%Fe 30min (ascorbate oxidation, Fe 100%), průměr ([3]; sheet IBE 3, 30min, Fe alone = 100%, mean (průměr) of the 9 replicates): 278.6%
%Fe 30min (ascorbate oxidation, Fe 100%) ([3]; sheet IBE 3, 30min, Fe alone = 100%, single replicates): 323.8% and 304.1% and 296.1% and 279.4% and 257.4% and 253.6% and 291.2% and 261% and 240.7%
Change of absorbance, odečet 0 (time 0 subtracted), čas 10, průměr ([3]; sheet IBE 3, time 10 minus time 0, mean (průměr)): -0.09469
Change of absorbance, odečet 0 (time 0 subtracted), čas 10 ([3]; sheet IBE 3, time 10 minus time 0, single replicates): -0.1148 and -0.1115 and -0.1009 and -0.09722 and -0.09232 and -0.09642 and -0.1047 and -0.06955 and -0.06465
Change of absorbance, odečet 0 (time 0 subtracted), čas 20, průměr ([3]; sheet IBE 3, time 20 minus time 0, mean (průměr)): -0.1775
Change of absorbance, odečet 0 (time 0 subtracted), čas 20 ([3]; sheet IBE 3, time 20 minus time 0, single replicates): -0.2173 and -0.2064 and -0.1913 and -0.1735 and -0.1668 and -0.1578 and -0.1895 and -0.1498 and -0.1449
Change of absorbance, odečet 0 (time 0 subtracted), čas 30, průměr ([3]; sheet IBE 3, time 30 minus time 0, mean (průměr)): -0.2575
Change of absorbance, odečet 0 (time 0 subtracted), čas 30 ([3]; sheet IBE 3, time 30 minus time 0, single replicates): -0.3006 and -0.2823 and -0.2749 and -0.2593 and -0.2389 (2×) and -0.2354 and -0.2666 and -0.2203
